Here are results for two molecules from patent publication US11897859B1, “Coumarin compounds as antibacterial agents” (KING FAISAL UNIVERSITY, priority 2023, dated 2024).

One assay addresses T1, DNA gyrase from E. coli (Escherichia coli, UniProt P0AES4+P0AES6).
T1 construct: purchased Inspiralis
The assay can be described thus: Inhibitory activity on E. coli DNA gyrase (Inspiralis supercoiling assay). It counts as biochemical. As for the experimental part:
Inhibitory potencies were investigated utilizing the Inspiralis assay on streptavidin-coated 96-well microtiter plates. First, the plates were rehydrated with buffer (20 mM Tris-HCl with pH 7.6, 0.01% w/v BSA, 0.05% v/v Tween 20, 137 mM NaCl) and the biotinylated oligonucleotide was then immobilized. After washing off the unbound oligonucleotide, the enzyme test was performed. […] Reaction solutions were incubated at 37° C. for 30 min. After that, the TF buffer (50 mM NaOAc with pH 5.0, 50 mM NaCl and 50 mM MgCl2) was added to terminate the enzymatic reaction. After additional incubation for 30 min at rt, during which biotinoligonucleotide-plasmid triplex was formed, the unbound plasmid was washed off using TF buffer and SybrGOLD in T10 buffer (10 mM Tris HCl with pH 8.0 and 1 mM EDTA) was added. The fluorescence was measured with a microplate reader (BioTek Synergy H4, excitation: 485 nm, emission: 535 nm). […] GraphPad Prism software was used to calculate the IC50 values. The result is given as the average value of three independent measurements.

Assay [1] has as its system Staphylococcus epidermidis. Nature of the assay: In vitro antibacterial activity (CLSI M07-A10 dilution), MIC. In kind it is cell-based.
Assay [2] concerns Enterococcus faecium ATCC 35667. The description is as above. In kind it is cell-based. Particulars: ATCC35667.
Assay [3] has as its system Staphylococcus aureus ATCC 29213. The assay is described as above. In kind it is cell-based. The following applies: ATCC29213.
Assay [4] concerns Staphylococcus aureus ATCC BAA-1556 (MERSA resistant). The description is as above. The following applies: ATCCBAA1556. It counts as cell-based.
Assay [5] relates to Mycobacterium tuberculosis H37Rv strain. Nature of the assay: Anti-tubercular alamar blue microplate MIC assay. Particulars: 168 h, M. tuberculosis H37Rv, 7 days at 37° C., read-out: anti-mycobacterial activity (MIC). In kind it is cell-based. In general terms: Resazurin is reduced to fluorescent resorufin, in cell work by metabolically active cells.
In assay [6] the test system is Pseudomonas aeruginosa MTCC 741. The assay can be described thus: In vitro antibacterial activity (CLSI M07-A10 dilution), MIC. It counts as cell-based. Particulars: MTCC741.
The subject of assay [7] is Bacillus subtilis MTCC 441. The description is as above. It counts as cell-based. Particulars: MTCC441.
In assay [8] the test system is Klebsiella pneumonia MTCC 618. The assay is described as above. The following applies: Klebsiella pneumoniae, MTCC618. In kind it is cell-based.
For assay [9], the system named is Enterococcus faecium ATCC 51559 (VRE resistant). The description is as above. In kind it is cell-based.
Assay [10] deals with Escherichia coli MTCC 443. Described as above. It counts as cell-based. Particulars: MTCC443.

In brackets after ≈: the same amount, converted by molar mass. Read-outs that look alike come from different tables or passages of the source.

T1 sequence (P0AES4 whole entry, one chain of several): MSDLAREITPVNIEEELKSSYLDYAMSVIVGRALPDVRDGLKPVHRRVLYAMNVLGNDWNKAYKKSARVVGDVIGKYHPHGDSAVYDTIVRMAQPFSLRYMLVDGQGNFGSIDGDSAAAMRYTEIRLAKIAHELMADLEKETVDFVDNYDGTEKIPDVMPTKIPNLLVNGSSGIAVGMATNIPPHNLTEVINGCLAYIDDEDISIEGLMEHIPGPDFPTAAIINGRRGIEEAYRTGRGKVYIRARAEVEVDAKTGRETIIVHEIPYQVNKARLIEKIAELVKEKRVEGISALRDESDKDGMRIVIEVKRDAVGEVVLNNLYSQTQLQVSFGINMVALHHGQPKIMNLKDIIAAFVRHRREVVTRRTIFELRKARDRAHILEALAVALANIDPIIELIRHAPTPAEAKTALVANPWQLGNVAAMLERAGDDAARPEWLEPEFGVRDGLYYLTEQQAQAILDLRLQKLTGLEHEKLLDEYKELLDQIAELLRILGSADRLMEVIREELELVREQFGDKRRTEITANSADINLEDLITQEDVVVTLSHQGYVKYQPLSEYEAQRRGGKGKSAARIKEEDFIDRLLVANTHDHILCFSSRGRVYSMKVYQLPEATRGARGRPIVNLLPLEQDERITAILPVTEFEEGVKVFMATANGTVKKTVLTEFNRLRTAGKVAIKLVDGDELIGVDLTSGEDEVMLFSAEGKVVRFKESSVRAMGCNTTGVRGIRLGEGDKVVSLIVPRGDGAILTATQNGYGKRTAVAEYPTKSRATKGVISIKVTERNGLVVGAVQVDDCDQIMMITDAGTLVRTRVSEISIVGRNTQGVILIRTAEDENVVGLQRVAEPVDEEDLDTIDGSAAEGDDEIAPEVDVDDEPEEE

Take `CCC(=O)Nc1ccc2cc(-c3cc(C(=O)O)ccc3CN(C)C3CCCCC3)c(=O)oc2c1` [Compound 12, 4-((cyclohexyl(methyl)amino)methyl)-3-(2-oxo-7-propionamido-2H-chromen-3-yl)benzoic acid]: at DNA gyrase from E. coli, the IC50 (as a rule, the concentration needed to halve the response being measured) stood at 78 nM. In addition, the MIC – broadly, the smallest concentration in the dilution series that meets the test's criterion for growth inhibition – in assay [1] was found to be 1 µg/mL (≈ 2.16 µM); in assay [2] it was 0.75 µg/mL (≈ 1.62 µM); in assay [3], 2 µg/mL (≈ 4.32 µM); in assay [4], 4 µg/mL (≈ 8.65 µM); in assay [5], 8 µg/mL (≈ 17.3 µM); in [6], 1 µg/mL (≈ 2.16 µM). Besides, the MIC in assay [7] amounted to 0.75 µg/mL (≈ 1.62 µM); in [8] (Klebsiella pneumonia MTCC 618, read-out: MIC), 1 µg/mL (≈ 2.16 µM); in [9] it was 1 µg/mL (≈ 2.16 µM); in assay [10], 4 µg/mL (≈ 8.65 µM).

The molecule `CN[C@H](CC(C)C)C(=O)N[C@H]1C(=O)N[C@@H](CC(N)=O)C(=O)N[C@H]2C(=O)N[C@H]3C(=O)N[C@H](C(=O)N[C@H](C(=O)O)c4cc(O)cc(O)c4-c4cc3ccc4O)[C@H](O)c3ccc(c(Cl)c3)Oc3cc2cc(c3O[C@@H]2O[C@H](CO)[C@@H](O)[C@H](O)[C@H]2O[C@H]2C[C@](C)(N)[C@H](O)[C@H](C)O2)Oc2ccc(cc2Cl)[C@H]1O` [Vancomycin, reference compound] showed an MIC in assay [8] of more than 128 µg/mL.
